Patent US6610675B1 (priority 1980, dated 2003)

Legend:
[1] = tested on: granulation tissue formation caused by implantation of cotton pellets; test: Granuloma formation test (local cotton pellet granuloma assay); format: in vivo, rat; conditions: for Body wt. gain / Granulation tissue Dry wt. / Granulation tissue Dry wt. Inhibition / Granulation tissue Wet wt. / Granulation tissue Wet wt. Inhibition / Thymus wt.: Table V-a; for Relative potency (ED40) / Relative potency (ED60): chloromethyl 11β-hydroxy-17α-isopropoxycarbonyloxyandrost-4-en-3-one-17β-carboxylate = 1; for ED40: dose causing 40% inhibition of granulation tissue weight; for ED50: dose causing 50% inhibition of granulation tissue weight; for ED60: dose causing 60% inhibition of granulation tissue weight
Protocol: The test compound was dissolved in acetone and aliquots of varying concentrations were injected into cotton pellets. The pellets were dried and then one pellet was implanted beneath the skin of each test rat. Six days later, the animals were sacrificed and the granulation tissue (granuloma) which formed in and around the implanted pellet was removed, dried and weighed. In addition, the thymi and adrenals were removed and weighed.

thymus weight in rats = test: Thymus inhibition testing (subcutaneous administration); format: in vivo, rat; conditions: Table VIII, 10 mg/kg/day s.c., three days
Protocol: Several further studies were undertaken to determine the effects of selected compounds of the invention on thymi weights in rats when the drugs were systemically administered. In each of these studies, male Sprague-Dawley rats were used. […] On the fifth day (48 hours following the last treatment), the animals were sacrificed and the thymi weights were recorded. […] It is evident that the higher the inhibition of thymus activity at a given dose, the more toxic the compound is.

Row | Structure (SMILES) | Body wt. gain ([1]; 0.3 μg/pellet) [g] | Granulation tissue Dry wt. ([1]; 0.3 μg/pellet) [mg] | Granulation tissue Dry wt. Inhibition ([1]; 0.3 μg/pellet) [%] | Granulation tissue Wet wt. ([1]; 0.3 μg/pellet) [mg] | Granulation tissue Wet wt. Inhibition ([1]; 0.3 μg/pellet) [%] | Thymus wt. ([1]; 0.3 μg/pellet) [mg] | Body wt. gain ([1]; 1 μg/pellet) [g] | Granulation tissue Dry wt. ([1]; 1 μg/pellet) [mg] | Granulation tissue Dry wt. Inhibition ([1]; 1 μg/pellet) [%] | Granulation tissue Wet wt. ([1]; 1 μg/pellet) [mg] | Granulation tissue Wet wt. Inhibition ([1]; 1 μg/pellet) [%] | Thymus wt. ([1]; 1 μg/pellet) [mg] | Body wt. gain ([1]; 3 μg/pellet) [g] | Granulation tissue Dry wt. ([1]; 3 μg/pellet) [mg] | Granulation tissue Dry wt. Inhibition ([1]; 3 μg/pellet) [%] | Granulation tissue Wet wt. ([1]; 3 μg/pellet) [mg] | Granulation tissue Wet wt. Inhibition ([1]; 3 μg/pellet) [%] | Thymus wt. ([1]; 3 μg/pellet) [mg] | Body wt. gain ([1]; 10 μg/pellet) [g] | Granulation tissue Dry wt. ([1]; 10 μg/pellet) [mg] | further results
1 | CCOC(=O)O[C@]1(C(=O)OCCl)[C@@H](C)C[C@H]2[C@@H]3CCC4=CC(=O)C=C[C@]4(C)[C@@]3(F)[C@@H](O)C[C@@]21C [chloromethyl 17α-ethoxycarbonyloxy-9α-fluoro-11β-hydroxy-16β-methylandrosta-1,4-dien-3-one-17β-carboxylate] | 32.5 ± 1.1 | 61.8 ± 5.7 | 22.8 | 499 ± 36 | 5.0 | 501 ± 29 | 36.3 ± 0.9 | 57.0 ± 6.2 | 28.8 | 437 ± 24 | 16.8 | 566 ± 31 | 33.8 ± 1.3 | 47.5 ± 5.0 | 40.7 | 422 ± 32 | 19.6 | 500 ± 27 | 31.1 ± 1.7 | 34.8 ± 5.5 | Granulation tissue Dry wt. Inhibition ([1]; 10 μg/pellet): 56.6%; Granulation tissue Wet wt. ([1]; 10 μg/pellet): 370 ± 21 mg; Granulation tissue Wet wt. Inhibition ([1]; 10 μg/pellet): 29.5%; Thymus wt. ([1]; 10 μg/pellet): 421 ± 30 mg; Relative potency (ED40) [1]: 133; Relative potency (ED60) [1]: 38; ED40 [1]: 2.31 μg/pellet; ED50 [1]: 6.45 μg/pellet; ED60 [1]: 18.01 μg/pellet; Body weight gain (thymus weight in rats): 2.4 ± 1.8 g; Thymus wt. (thymus weight in rats): 266 ± 20 mg; Thymus wt. Inhibition (thymus weight in rats): 51.6%
2 | CCCOC(=O)O[C@]1(C(=O)OCCl)[C@H](C)C[C@H]2[C@@H]3CCC4=CC(=O)C=C[C@]4(C)[C@@]3(F)[C@@H](O)C[C@@]21C [chloromethyl 9α-fluoro-11β-hydroxy-16α-methyl-17α-propoxycarbonyloxyandrosta-1,4-dien-3-one-17β-carboxylate] | 35.6 ± 1.0 | 55.1 ± 6.2 | 31.2 | 454 ± 27 | 13.5 | 523 ± 28 | 31.9 ± 0.8 | 42.9 ± 5.1 | 46.4 | 415 ± 30 | 21.0 | 453 ± 21 | 34.1 ± 1.9 | 29.7 ± 3.2 | 62.9 | 360 ± 18 | 31.4 | 504 ± 42 | 33.1 ± 1.6 | 28.5 ± 2.8 | Granulation tissue Dry wt. Inhibition ([1]; 10 μg/pellet): 64.4%; Granulation tissue Wet wt. ([1]; 10 μg/pellet): 350 ± 13 mg; Granulation tissue Wet wt. Inhibition ([1]; 10 μg/pellet): 33.3%; Thymus wt. ([1]; 10 μg/pellet): 547 ± 26 mg; Relative potency (ED40) [1]: 529; Relative potency (ED60) [1]: 277; ED40 [1]: 0.58 μg/pellet; ED50 [1]: 1.20 μg/pellet; ED60 [1]: 2.49 μg/pellet; Body weight gain (thymus weight in rats): 2.7 ± 1.7 g; Thymus wt. (thymus weight in rats): 277 ± 25 mg; Thymus wt. Inhibition (thymus weight in rats): 49.6%
